This is an account of results in ChEMBL document CHEMBL3046525, “In vitro antiproliferative activity of 11-aminoalkylamino-substituted 5H-indolo[2,3-b]quinolines; improving activity of neocryptolepines by installation of ester substituent” (Med Chem Res, 2013).

Series [1] is described as follows: Selectivity ratio of IC50 for mouse BALB/3T3 cells to IC50 for human HCT116 cells. The following applies: BALB/3T3 cells versus HCT116 cells, read-out: Ratio IC50. It is filed as cell-based, HCT-116.
In series [2] the test system is MV4-11. The series is described as follows: Antiproliferative activity against Homo sapiens (human) MV411 cells after 72 hr by MTT assay. It is filed as functional, cell-based. Conditions: MV4-11, 72 h. On the technique in general: Formazan colour is commonly taken as a measure of viable cells.
Series [3] deals with A549. As to the kind of experiment: Antiproliferative activity against Homo sapiens (human) A549 cells after 72 hr by SRB assay. It counts as functional, cell-based. The following applies: A549, 72 h. A general note: The SRB assay estimates cell density from bound dye.
Series [4] concerns BALB/3T3. As to the kind of experiment: Cytotoxicity against Mus musculus (mouse) BALB/3T3 cells after 72 hr by SRB assay. It is filed as cell-based. The following applies: BALB/3T3, 72 h.

A word on the IC50: it is the concentration that inhibits the measured activity by half. Low readings indicate inhibition by little substance, high ones a need for much substance.

Regarding `COC(=O)c1ccc2c(c1)c(NCCCN)c1c3ccccc3nc-1n2C`, the selectivity ratio in series [1] came to 4.

For `COC(=O)c1ccc2nc3n(C)c4ccccc4c(NCCCN(C)C)c-3c2c1`, the selectivity ratio in series [1] stood at 4.

With `COC(=O)c1ccc2nc3n(C)c4ccccc4c(NCCCN)c-3c2c1`, the selectivity ratio in series [1] was determined as 4.

Take `CN1CCCN(c2c3c4ccccc4nc-3n(C)c3ccccc23)CC1`: in series [2], the IC50 is 7.17 µM.

`COC(=O)c1ccc2nc3n(C)c4ccccc4c(NCCCCN)c-3c2c1`: the selectivity ratio in series [1] was 4.

The compound `Cn1c2nc3ccc(C(=O)O)cc3c-2c(NCCCN)c2ccccc21` showed an IC50 in series [2] of more than 25 µM.

`COC(=O)c1ccc2nc3n(C)c4ccccc4c(N4CCCN(C)CC4)c-3c2c1`: the selectivity ratio in series [1] came to 4.

Consider `Cn1c2nc3ccccc3c-2c(NCCCCN)c2ccccc21`, for which, in series [2], the IC50 is 0.1 µM.

On to `COC(=O)c1ccc2c(c1)c(NCCCN)c1c3cc(Br)ccc3nc-1n2C`, for which the selectivity ratio in series [1] is 4.

`CN(C)CCCNc1c2c3cc(C(=O)O)ccc3nc-2n(C)c2ccccc12`: in series [2], the half-inhibitory concentration (IC50) is more than 25 µM.

Consider `Cn1c2nc3ccc(Br)cc3c-2c(NCCCN)c2cc(Cl)ccc21`, for which, in series [1], the selectivity ratio is 4.

On to `COC(=O)c1ccc2nc3n(C)c4ccccc4c(N4CCOCC4)c-3c2c1`, for which the selectivity ratio in series [1] is 4.

In the case of `Cn1c2nc3ccc(C(=O)O)cc3c-2c(NCCCO)c2ccccc21`, in series [2], the IC50 was more than 25 µM.

In series [2], `CN(C)CCNc1c2c3cc(C(=O)O)ccc3nc-2n(C)c2ccccc12` gave an IC50 of 9.28 µM.

In turn, `Cn1c2nc3ccccc3c-2c(NCCCO)c2ccccc21` gave an IC50 in series [2] of 0.17 µM.

For `COC(=O)c1ccc2nc3n(C)c4ccc(Br)cc4c(NCCCN)c-3c2c1`, in series [1], the selectivity ratio turned out to be 4. For the same compound, the IC50 in series [3] was 194 nM; in series [2], 0.056 µM; in series [4], 833 nM.

As for `COC(=O)c1ccc2nc3n(C)c4ccccc4c(NCCN(C)C)c-3c2c1`, in series [1], the selectivity ratio is 4.

Regarding `COC(=O)c1ccc2nc3n(C)c4ccc(C(=O)OC)cc4c(NCCCN)c-3c2c1`, the selectivity ratio in series [1] came to 28.

As for `COC(=O)c1ccc2nc3n(C)c4ccccc4c(NCCCO)c-3c2c1`, in series [1], the selectivity ratio was found to be 4.
